Experimental data published in PMC3545992, “Trisubstituted Pyrazolopyrimidines as Novel Angiogenesis Inhibitors” (PLoS ONE, 2013).
Read-outs that look alike come from different tables or passages of the source.

What was measured:
[1] = test system: HUVECs; test: Chemotaxis assay in FCS gradient (µ-slides Chemotaxis); assay type: cell-based, human; settings: for chemotaxis of endothelial cells (in words): 10 µM; for inhibition at 10 µM: Homo sapiens, HUVEC, read-out: inhibition of chemotaxis in accumulative distance
Method: Figure 5 LGR 1404, 1406 and 1407 decrease chemotaxis of endothelial cells. Chemotaxis of HUVECs in the presence or absence of 10 µM of the indicated compounds was determined in µ-slides Chemotaxis. A: Quantitative evaluation of accumulated and euclidean distance, velocity and y-forward migration index (n = 3, mean ± SEM, * p<0.05, One Way ANOVA, Dunnett). B: Representative cell tracking plots of untreated and treated cells.
The effect of the LGR compounds on endothelial cell chemotaxis was determined using Collagen IV coated μ-slides Chemotaxis (ibidi, Martinsried, Germany). HUVECs (5×10^6 cells per ml) were seeded into the observation channel of the slides according to the manual of the manufacturer, and the cells were allowed to attach for 4 hours. Then, the chambers of the chemotaxis slide were completely filled with serum-free medium M 199; and growth medium containing 30% FCS was added to one chamber in order to generate an FCS-gradient from 0% to […]. 10 µM of the indicated compounds were added both to the M199 and to the 30% FCS. Chemotaxis was observed over 20 hours by live-cell imaging with a Zeiss LSM 510 META confocal microscope equipped with an incubator stage (EMBLem, Heidelberg, Germany). A time series was collected taking 1 picture every 10 minutes. For cell tracking and data analysis, the manual tracking plug-in (Fabrice Cordelieres) and the Chemotaxis and Migration Tool (Version 1.01, ibidi, Martinsried, Germany) for ImageJ were used. Euclidean distance (direct distance from the starting point to the end point) was used as an indicator of directionality of movement, accumulative distance (sum of all migrated distances from track to track) and velocity (mean velocity of every cell calculated as ratio between track to track distance and time) were used as a measure for total motility.

[2] = test system: HMEC-1 cells; test: Crystal violet proliferation assay; assay type: cell-based, human; settings: HMEC-1, 72 h, read-out: IC50 endothelial cell proliferation
Method: HMEC-1 cells were seeded to a density of 1,500 cells/well. After 24 h of incubation, a zero point control was stained with crystal violet. The remaining cells were left untreated as positive control or treated with 0.3-1-3-10–30 µM of the indicated compounds. After 72 h additional incubation, relative proliferation was determined by crystal violet staining and quantified as absorption at 550 nm.
HMEC-1 were seeded into 96-well-plates (1,500 cells/well). After 24 h, the cells were stimulated with the indicated compounds. At the same time point, cells in a reference plate were stained with crystal violet, serving as initial cell number. After 72 hours of stimulation, cells were fixed and stained with crystal-violet solution for 10 minutes, washed with water, and air dried. Crystal violet was eluted with dissolving buffer and absorbance was measured at 550 nm (Tecan Sunrise Absorbance reader, TECAN, Crailsheim, Germany). In a parallel series of experiments, cells seeded at the same cell density as in the proliferation assays were treated with 30 µM of the respective compound for 72 h. Afterwards, 10 µg/ml propidium iodide was added for 30 min to counterstain cells for membrane integrity. Phase contrast and fluorescence images were obtained with an inverted Nikon microscope (Ti, Nikon, Düsseldorf, Germany) equipped with a 10x objective.

[3] = test system: HUVECs; test: Quantification of lamellipodia and Rac1 immunocytochemistry in migrating cells; assay type: cell-based, human; settings: 8 h migration; for reduction of formation of lamellipodia: 10 µM; for recruitment of Rac1 to lamellipodia (in words): immunofluorescence
Method: A: Confluent layers of HUVECs were scratched and the cells were allowed to migrate for 8 h in the presence or absence of the respective concentration of the compounds, until clear lamellipodia formation was visible in the control. The actin cytoskeleton was then stained with rhodamin-phalloidine and fluorescence images (10x magnification) of the scratches were taken. Left panel: For quantitative evaluation of lamellipodia formation, cells with prominent lamellipodia and ruffles were counted in relation to the number of cells at the scratch front (n = 3, mean ± SEM, * p<0.05, One Way ANOVA, Dunnett). Right panel: Representative images of the scratch front (f-actin, 40x magnification). B: Cells treated like in A were fixed and stained for f-actin (red), cortactin (green) and Rac1 (white). Representative images out of three experiments are shown.
Confluent layers of HUVECs were scratched and stimulated in 8-well μ-slides as described above. The cells were allowed to migrate for 8 h in the presence or absence of the respective concentration of the compounds, until clear lamellipodia formation was visible in the control. The actin cytoskeleton was then stained with rhodamine-phalloidin (Life Technologies, Darmstadt, Germany) and fluorescence images of the scratches were taken in 10x magnification with the Zeiss LSM 510 META. For quantitative evaluation of lamellipodia formation, cells with prominent lamellipodia and ruffles were counted with ImageJ (Cell Counter plug-in by Kurt De Vos) in relation to the total number of cells at the scratch front. The ratio was calculated as number of lamellipodia-positive cells per 100 cells at scratch front. In the same setting immunofluorescence staining was performed. Fixed cells were permeabilized for 2 min with 0.1% Triton X-100 in PBS. Cells were washed and unspecific binding was blocked with 0.2% BSA in PBS for 15 min. Thereafter, cells were incubated with primary antibody (cortactin: rabbit polyclonal, 1∶100, Cell Signaling, and Rac1: mouse monoclonal, 1∶100, Upstate) in 0.2% BSA/PBS over night at 4°C. After three washing steps with PBS, the specimen were incubated with the corresponding AlexaFluor® -labeled secondary antibodies for 30 min at room temperature. Finally, the slides were again washed three times with PBS (5 min), embedded in FluorSave^TM Reagent mounting medium and covered with 8 mm ×8 mm glass cover slips.

[4] = target: T1, Cdk5/p25 (Homo sapiens, UniProt Q00535); test: In vitro kinase profile (ProQinase); assay type: biochemical
T1 construct: purchased ProQinase (Freiburg, Germany)
Method: (§1) Therefore, it was of interest to see which kinases, especially which Cdks, are inhibited by those compounds. The kinase profiling was performed by ProQinase (Freiburg, Germany) for LGR 1406 and 1407. For LGR 1404 kinase profiling has recently been published previously. LGR 1406 and 1407 were tested for their IC50 in a panel of 24 kinases, including the Cdk1, Cdk2, Cdk4, Cdk5, Cdk6, Cdk7 and Cdk9. The other kinases tested were PTK6, EGFR, FAK, FGFR1 and FGFR2, NLK, PAK4, VEGFR1 and VEGFR2, MEK1, ROCK1, RAF1, ALK, RSK3, AURKA, and AMPKα1.

[5] = target: T2, Cdk4/CycD1 (Homo sapiens, UniProt P11802); test: In vitro kinase profile (ProQinase); assay type: biochemical
T2 construct: purchased ProQinase (Freiburg, Germany)
Method: as §1

[6] = target: T3, Cdk7/CycH/MAT1 (Homo sapiens, UniProt P50613); test: In vitro kinase profile (ProQinase); assay type: biochemical
T3 construct: purchased ProQinase (Freiburg, Germany)
Method: as §1

[7] = target: T4, Cdk2/CycA (Homo sapiens, UniProt P24941); test: In vitro kinase profile (ProQinase); assay type: biochemical
T4 construct: purchased ProQinase (Freiburg, Germany)
Method: as §1

[8] = target: T5, Cdk6/CycD1 (Homo sapiens, UniProt Q00534); test: In vitro kinase profile (ProQinase); assay type: biochemical
T5 construct: purchased ProQinase (Freiburg, Germany)
Method: as §1

[9] = target: T6, Cdk9/CycT (Homo sapiens, UniProt P50750); test: In vitro kinase profile (ProQinase); assay type: biochemical
T6 construct: purchased ProQinase (Freiburg, Germany)
Method: as §1

T5 sequence (Q00534 whole entry): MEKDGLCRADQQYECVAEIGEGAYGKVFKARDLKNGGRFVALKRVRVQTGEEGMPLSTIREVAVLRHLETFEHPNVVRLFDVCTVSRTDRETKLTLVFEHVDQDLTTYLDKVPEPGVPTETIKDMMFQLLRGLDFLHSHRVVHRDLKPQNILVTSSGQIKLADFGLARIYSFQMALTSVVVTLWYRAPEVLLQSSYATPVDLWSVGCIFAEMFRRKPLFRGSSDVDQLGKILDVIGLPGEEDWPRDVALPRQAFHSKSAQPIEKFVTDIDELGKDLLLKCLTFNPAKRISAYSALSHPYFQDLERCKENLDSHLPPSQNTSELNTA
T5 sequence (P24385 whole entry partner): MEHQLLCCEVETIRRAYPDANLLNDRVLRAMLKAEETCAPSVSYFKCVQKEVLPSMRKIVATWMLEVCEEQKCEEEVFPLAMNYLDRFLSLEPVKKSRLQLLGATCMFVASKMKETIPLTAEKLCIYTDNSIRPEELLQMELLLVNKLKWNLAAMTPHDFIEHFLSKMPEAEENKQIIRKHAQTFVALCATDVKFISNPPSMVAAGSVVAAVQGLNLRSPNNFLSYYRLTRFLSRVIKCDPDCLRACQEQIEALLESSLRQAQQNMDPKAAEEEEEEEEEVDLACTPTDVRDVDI
T1 sequence (Q00535 whole entry): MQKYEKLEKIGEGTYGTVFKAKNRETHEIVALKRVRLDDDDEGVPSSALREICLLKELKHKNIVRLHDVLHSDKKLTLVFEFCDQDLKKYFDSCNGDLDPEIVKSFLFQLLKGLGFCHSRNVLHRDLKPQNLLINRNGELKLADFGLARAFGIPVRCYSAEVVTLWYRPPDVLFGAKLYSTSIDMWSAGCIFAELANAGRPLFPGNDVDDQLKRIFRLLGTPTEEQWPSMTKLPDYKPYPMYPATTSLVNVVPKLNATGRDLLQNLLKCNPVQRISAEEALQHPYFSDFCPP
T1 sequence (Q15078 99-307 partner limits assumed): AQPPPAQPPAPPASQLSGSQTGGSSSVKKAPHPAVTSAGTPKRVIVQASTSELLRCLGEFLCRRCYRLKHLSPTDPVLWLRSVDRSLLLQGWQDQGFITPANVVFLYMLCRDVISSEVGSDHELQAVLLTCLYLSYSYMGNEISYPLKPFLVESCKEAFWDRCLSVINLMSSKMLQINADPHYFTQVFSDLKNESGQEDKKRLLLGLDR
T2 sequence (P11802 whole entry): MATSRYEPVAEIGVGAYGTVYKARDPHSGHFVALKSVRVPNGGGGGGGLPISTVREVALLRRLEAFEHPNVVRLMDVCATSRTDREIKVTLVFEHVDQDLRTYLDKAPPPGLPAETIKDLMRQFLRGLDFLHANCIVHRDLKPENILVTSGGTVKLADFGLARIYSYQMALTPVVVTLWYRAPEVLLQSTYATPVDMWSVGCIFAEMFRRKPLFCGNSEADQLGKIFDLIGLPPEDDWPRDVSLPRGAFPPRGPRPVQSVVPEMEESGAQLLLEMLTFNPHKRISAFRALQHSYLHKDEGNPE
T2 sequence (P24385 whole entry partner): as the sequence (P24385 whole entry partner) above
T6 sequence (P50750 whole entry): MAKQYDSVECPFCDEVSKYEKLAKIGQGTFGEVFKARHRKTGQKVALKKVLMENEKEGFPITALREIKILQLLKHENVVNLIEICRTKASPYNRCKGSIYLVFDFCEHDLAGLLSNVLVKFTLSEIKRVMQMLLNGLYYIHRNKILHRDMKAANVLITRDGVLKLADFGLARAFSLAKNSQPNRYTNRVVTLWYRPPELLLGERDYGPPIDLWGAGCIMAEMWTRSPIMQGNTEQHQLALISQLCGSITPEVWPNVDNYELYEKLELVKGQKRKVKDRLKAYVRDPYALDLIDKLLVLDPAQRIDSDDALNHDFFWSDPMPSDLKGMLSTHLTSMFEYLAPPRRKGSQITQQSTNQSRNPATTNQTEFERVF
T6 sequence (O60563 whole entry partner): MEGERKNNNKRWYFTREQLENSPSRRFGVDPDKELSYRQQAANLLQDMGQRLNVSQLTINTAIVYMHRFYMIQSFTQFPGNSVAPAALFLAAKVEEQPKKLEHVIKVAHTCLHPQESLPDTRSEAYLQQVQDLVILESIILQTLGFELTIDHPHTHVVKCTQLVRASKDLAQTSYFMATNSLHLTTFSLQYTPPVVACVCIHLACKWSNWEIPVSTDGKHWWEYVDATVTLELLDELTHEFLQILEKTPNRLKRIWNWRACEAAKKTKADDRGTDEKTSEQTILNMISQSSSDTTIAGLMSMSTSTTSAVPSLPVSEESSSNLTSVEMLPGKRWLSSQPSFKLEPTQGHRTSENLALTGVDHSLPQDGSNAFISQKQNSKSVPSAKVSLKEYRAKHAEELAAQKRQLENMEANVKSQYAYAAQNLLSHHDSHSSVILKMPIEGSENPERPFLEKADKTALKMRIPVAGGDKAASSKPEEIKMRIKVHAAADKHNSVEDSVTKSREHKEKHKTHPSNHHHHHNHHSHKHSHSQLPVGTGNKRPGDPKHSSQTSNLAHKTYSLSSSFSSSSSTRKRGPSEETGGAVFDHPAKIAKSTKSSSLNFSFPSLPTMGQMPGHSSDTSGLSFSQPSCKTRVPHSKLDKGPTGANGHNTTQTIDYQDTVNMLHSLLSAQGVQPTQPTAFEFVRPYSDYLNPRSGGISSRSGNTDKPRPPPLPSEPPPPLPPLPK
T3 sequence (P50613 whole entry): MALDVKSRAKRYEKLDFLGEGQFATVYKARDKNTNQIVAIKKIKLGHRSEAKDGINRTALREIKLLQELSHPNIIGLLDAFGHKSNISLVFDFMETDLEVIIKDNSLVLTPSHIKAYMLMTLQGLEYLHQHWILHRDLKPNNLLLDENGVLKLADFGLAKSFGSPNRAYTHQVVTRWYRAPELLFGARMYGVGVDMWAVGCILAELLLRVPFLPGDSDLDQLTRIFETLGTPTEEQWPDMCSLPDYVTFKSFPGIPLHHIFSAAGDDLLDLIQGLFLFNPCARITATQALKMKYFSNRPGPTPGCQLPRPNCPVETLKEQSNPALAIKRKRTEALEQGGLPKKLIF
T3 sequence (P51946 whole entry partner): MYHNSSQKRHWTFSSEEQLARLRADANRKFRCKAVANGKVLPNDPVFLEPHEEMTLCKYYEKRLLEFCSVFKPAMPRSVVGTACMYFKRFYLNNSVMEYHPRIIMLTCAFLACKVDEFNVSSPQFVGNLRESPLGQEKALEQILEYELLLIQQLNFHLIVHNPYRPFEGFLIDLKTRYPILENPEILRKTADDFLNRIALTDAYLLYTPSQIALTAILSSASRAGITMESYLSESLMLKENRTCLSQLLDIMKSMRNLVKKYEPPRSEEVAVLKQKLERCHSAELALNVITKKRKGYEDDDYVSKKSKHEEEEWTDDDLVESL
T3 sequence (P51948 whole entry partner): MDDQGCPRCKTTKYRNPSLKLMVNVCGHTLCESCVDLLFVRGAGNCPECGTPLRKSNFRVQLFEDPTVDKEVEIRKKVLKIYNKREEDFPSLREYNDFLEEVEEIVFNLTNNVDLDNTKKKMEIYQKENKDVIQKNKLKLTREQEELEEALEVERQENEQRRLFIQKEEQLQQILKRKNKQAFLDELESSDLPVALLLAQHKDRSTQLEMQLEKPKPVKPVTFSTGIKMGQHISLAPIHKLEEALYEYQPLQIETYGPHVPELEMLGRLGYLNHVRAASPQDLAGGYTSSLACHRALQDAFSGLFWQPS

| SMILES | chemotaxis of endothelial cells (in words) [1] | inhibition at 10 µM [1] [%] | IC50 ([2]; Homo sapiens) [nM] | reduction of formation of lamellipodia [3] [%] | recruitment of Rac1 to lamellipodia (in words) [3] | IC50 [2] [nM] | IC50 [4] [nM] | IC50 [5] [nM] | IC50 [6] [nM] | IC50 [7] [nM] | IC50 [8] [nM] | IC50 [9] [nM] |
| --- | --- | --- | --- | --- | --- | --- | --- | --- | --- | --- | --- | --- |
| CC[C@H](CO)Nc1nc(NCc2ccccc2)c2n[nH]c(C(C)C)c2n1 [LGR 1404, 7-Benzylamino-5(R)-[(1-hydroxymethyl)propylamino]-3-isopropyl-1(2)H-pyrazolo[4,3-d]pyrimidine] | decrease | 50 | 7720 | 54 | inhibit recruitment of Rac1 to lamellipodia | – | – | – | – | – | – | – |
| CC(C)c1n[nH]c2c(NCc3ccccc3)nc(NC3CCCCC3N)nc12 (stereo not shown) [LGR 1406, 5-[(2-E/Z-aminocyclohexyl)amino]-7-benzylamino-3-isopropyl-1(2)H-pyrazolo[4,3-d]pyrimidine] | decrease | 70 | ~1000 | 67 | inhibit recruitment of Rac1 to lamellipodia | 930 | 440 | 15000 | > 100000 | 990 | > 100000 | 1000 |
| CC(C)c1n[nH]c2c(NCc3ccccc3)nc(NC3CCC(N)CC3)nc12 (stereo not shown) [LGR 1407, 5-[(4-E-aminocyclohexyl)amino]-7-benzylamino-3-isopropyl-1(2)H-pyrazolo[4,3-d]pyrimidine] | decrease | 60 | 3660 | 67 | inhibit recruitment of Rac1 to lamellipodia | – | 1600 | 66000 | > 100000 | 1500 | 91000 | 1900 |
